From the supplement of paper PMC3937590

Experiments:
Assay in all cases: -log10 GI50 (growth inhibition 50%) (-log10(M)); higher = more potent growth inhibition
[1] = system: MCF10A
How it was run: (§1)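 Breast cancer cell lines were treated with each compound for 72 hours at nine doses in 1:5 serial dilution, in triplicate, and luminescence was read against a time-zero plate. A Gompertz curve was fitted to the dose-response data by nonlinear least squares to obtain GI50, the molar concentration giving the set level of growth inhibition, which is reported as its negative logarithm. The logarithm is base 10, and values equal to the top dose carry a < qualifier.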

[2] = system: BT20
How it was run: as §1

[3] = system: T47D_KBluc
How it was run: as §1

[4] = system: HCC1395
How it was run: as §1

[5] = system: SUM229PE
How it was run: as §1

[6] = system: BT549
How it was run: as §1

[7] = system: SUM52PE
How it was run: as §1

[8] = system: SKBR3
How it was run: as §1

[9] = system: ZR75B
How it was run: as §1

[10] = system: MCF10F
How it was run: as §1

[11] = system: CAMA1
How it was run: as §1

[12] = system: HCC1569
How it was run: as §1

[13] = system: AU565
How it was run: as §1

[14] = system: ZR751
How it was run: as §1

[15] = system: SUM149PT
How it was run: as §1

[16] = system: MX1
How it was run: as §1

[17] = system: MDAMB361
How it was run: as §1

[18] = system: UACC812
How it was run: as §1

[19] = system: MDAMB134VI
How it was run: as §1

[20] = system: HCC1806
How it was run: as §1

SMILES | -log10 GI50 [1] | -log10 GI50 [2] | -log10 GI50 [3] | -log10 GI50 [4] | -log10 GI50 [5] | -log10 GI50 [6] | -log10 GI50 [7] | -log10 GI50 [8] | -log10 GI50 [9] | -log10 GI50 [10] | -log10 GI50 [11] | -log10 GI50 [12] | -log10 GI50 [13] | -log10 GI50 [14] | -log10 GI50 [15] | -log10 GI50 [16] | -log10 GI50 [17] | -log10 GI50 [18] | -log10 GI50 [19] | -log10 GI50 [20]
CSCC[C@H](NC(=O)[C@H](Cc1ccccc1)NC[C@@H](NC[C@@H](N)CS)C(C)C)C(=O)O [FTase inhibitor I] | < 4.48 | < 4.48 | < 4.18 | < 4.18 | < 4.48 | < 4.18 | 4.93 | < 4.48 | < 4.48 | < 4.48 | < 4.48 | < 4.18 | < 4.48 | < 4.18 | 4.76 | < 4.48 | < 4.18 | < 4.48 | < 4.48 | < 4.48
O=c1[nH]c(=O)n([C@H]2C[C@H](O)[C@@H](CO)O2)cc1F [Floxuridine] | 4.86 | 3.49 | 2.8 | 3.51 | 4.16 | 3.57 | 3.45 | 3.66 | 5.16 | 4.34 | 4.36 | 3.38 | 4.97 | 5.55 | 4.12 | 2.84 | 3.4 | 4.11 | 3.2 | 4.02
Cc1cncc2cccc(S(=O)(=O)N3CCCN(C(=O)CN)C[C@@H]3C)c12 [Glycyl H1152] | 5.28 | 5.18 | < 4.18 | 5.05 | 5.31 | 5.01 | 5.1 | 4.33 | < 4.18 | < 4.18 | < 4.48 | 5.21 | 5.14 | 4.81 | 4.57 | 5.96 | 4.65 | 4.59 | 5.9 | < 4.18
CC(C(C)N1CC(=O)NC(=O)C1)N1CC(=O)NC(=O)C1 (stereo not given) [ICRF-193] | 7.07 | < 4.3 | < 4.48 | 4.69 | 6.14 | < 4.3 | 5.6 | 5.22 | 6.6 | < 4.3 | < 4.3 | < 4.3 | 6.14 | 6.07 | 5.59 | 5.95 | 4.39 | < 4.48 | 4.32 | < 4.3
CCCCCN(C)CCC(O)(P(=O)(O)O)P(=O)(O)O [Ibandronate sodium] | 3.39 | 4.69 | 3.92 | 4.89 | 4.27 | 4.53 | 4.47 | 4.05 | 3.84 | 3.81 | 3.82 | 4.21 | 3.74 | 4.16 | 3.76 | 3.94 | 4.83 | 3.83 | 4.17 | 4.44
Cc1ccc(NC(=O)c2ccc(CN3CCN(C)CC3)cc2)cc1Nc1nccc(-c2cccnc2)n1 [Imatinib] | 4.36 | 4.89 | 4.67 | 4.77 | 5.27 | 4.45 | 4.65 | 4.63 | 4.63 | 4.71 | 4.71 | 4.75 | 4.72 | 4.56 | 4.67 | 4.65 | 4.57 | 4.98 | 4.47 | 5.15
C/C(=C\c1csc(C)n1)[C@@H]1C[C@@H]2O[C@]2(C)CCC[C@H](C)[C@H](O)[C@@H](C)C(=O)C(C)(C)[C@@H](O)CC(=O)N1 [Ixabepilone] | 8.1 | 8.45 | 7.61 | 7.96 | 8.72 | 8.26 | 9.53 | 7.99 | 6.95 | 8.08 | 9.02 | 6.55 | 8.42 | 6.68 | 8.26 | 8.53 | 8.64 | 5.24 | 9 | 8.36
CC(C)C[C@@H](C=O)NC(=O)[C@H](CC(C)C)NC(=O)[C@H](CC(C)C)NC(=O)OCc1ccccc1 [MG-132] | 7.21 | 6.37 | 6.77 | 6.64 | 6.98 | 7.04 | 7.12 | 6.58 | 6.4 | 7.14 | 6.69 | 6.68 | 7.05 | 6.26 | 6.8 | 6.88 | 6.62 | 6.72 | 6.63 | 6.5
NS(=O)(=O)OC[C@@H]1C[C@@H](n2ccc3c(N[C@H]4CCc5ccccc54)ncnc32)C[C@@H]1O [MLN4924] | 6.31 | 5.7 | 6.71 | 5.73 | 6.59 | 6.54 | 6.41 | 6.82 | 6.84 | 6.2 | 7.29 | 4.86 | 6.74 | 5.32 | 6.73 | 5.7 | 7.03 | 5.98 | 7.06 | 7.67
Cc1c(O)cccc1C(=O)N[C@@H](CSc1ccccc1)[C@H](O)CN1C[C@H]2CCCC[C@H]2C[C@H]1C(=O)NC(C)(C)C [Nelfinavir] | 4.9 | 5.16 | < 4.48 | < 4.48 | 4.84 | 4.99 | 4.75 | 5.09 | 5.13 | 4.99 | 5.37 | < 4.48 | < 4.48 | 4.94 | 4.98 | 5.15 | 4.97 | < 4.48 | 5.06 | 5.11
